Experiment [1] has as its system BT-474 human mammary gland ductal carcinoma cells. In words: Inhibition of BT-474 cell growth (Cell Titer-Glo, 72 h). The experiment is classed as cell-based. The note with it: BT-474 cells, 72 hours of culture, Cell Titer-Glo luminescence. The method, then:
(§1) BT-474 human mammary gland ductal carcinoma cells were seeded in a clear polystyrene 96-well microculture plate (Corning® Costar® 96-well flat bottom plate, Cat. #3997) in a total volume of 90 μL/well. After 24 hours of incubation in a humidified incubator at 37° C. with 5% CO2 and 95% air, 10 μL of 10×, serially diluted test agents in growth medium were added to each well (10 pt dose response curve, highest concentration 10 μM of test agent). After 72 hours of culture in a humidified incubator at 37° C., in an atmosphere of 5% CO2 and 95% air, the plated cells and Cell Titer-Glo® (Protnega G7571) reagents were brought to room temperature to equilibrate for 30 minutes. 100 μL of Cell Titer-Glo® reagent was added to each well. The plate was shaken for two minutes and then left to equilibrate for ten minutes. The media/Cell Titer-Glo® reagent was transferred to a white polystyrene 96-well microculture plate (Corning® Costar® 96-well flat bottom plate, Cat. #3917) before reading luminescence on a Tecan GENios microplate reader.
(§2) Percent inhibition of cell growth was calculated relative to untreated control wells. The IC50 value for the test agents was determined using Prism 6.05 by curve-fitting of the data using the following four parameter-logistic equation:
[formula] where Top is the maximal % of control absorbance, Bottom is the minimal % of control absorbance at the highest agent concentration, Y is the % of control absorbance, X is the agent concentration, IC50 is the concentration of agent that inhibits cell growth by 50% compared to the control cells, and n is the slope of the curve. […]
For orientation: Cellular ATP, detected with luciferase, serves as a proxy for viable cell number.

In a further experiment the test system is HCC1954 cells. Put plainly: Inhibition of HCC1954 cell growth (method analogous to BT-474). The experiment is classed as cell-based. The note with it: Homo sapiens. How it is done:
as §1, §2
[formula] where Top is the maximal % of control absorbance, Bottom is the minimal % of control absorbance at the highest agent concentration, Y is the % of control absorbance, X is the agent concentration, IC50 is the concentration of agent that inhibits cell growth by 50% compared to the control cells, and n is the slope of the curve.
Inhibitory response of test compounds against HCC1954 cells was determined using a method analogous to that used for BT-474 cells.

Regarding `C/C=C(\C)[C@H]1OC(=O)[C@@H](C)NC(=O)[C@H]([C@H](C)CC)NC(=O)CN(C)C(=O)[C@@H](Cc2ccccc2)N(C)C(=O)[C@H](C)NC(=O)[C@@H](CC(C)C)OC(=O)/C(C)=C/C[C@H](OC(=O)NCCCO)[C@@H]1C` [Compound 1, (2R,5S,8R,14S,17R,20S,21S,22S,E)-8-benzyl-20-((E)-but-2-en-2-yl)-14-((R)-sec-butyl)-2-isobutyl-5,7,10,17,21,25-hexamethyl-3,6,9,12,15,18,26-heptaoxo-1,19-dioxa-4,7,10,13,16-pentaazacyclohexacos-24-en-22-yl (3-hydroxypropyl)carbamate], the IC50 in experiment [1] is 0.0811 nM; in the experiment with HCC1954 cells, 0.457 nM.
On the same counts, the results for `C/C=C(\C)[C@H]1OC(=O)[C@@H](C)NC(=O)[C@H]([C@H](C)CC)NC(=O)CN(C)C(=O)[C@@H](Cc2ccccc2)N(C)C(=O)[C@H](C)NC(=O)[C@@H](CC(C)C)OC(=O)/C(C)=C/C[C@H](OC(=O)NCCCCO)[C@@H]1C` [Compound 2, (2R,5S,8R,14S,17R,20S,21S,22S,E)-8-benzyl-20-((E)-but-2-en-2-yl)-14-((R)-sec-butyl)-2-isobutyl-5,7,10,17,21,25-hexamethyl-3,6,9,12,15,18,26-heptaoxo-1,19-dioxa-4,7,10,13,16-pentaazacyclohexacos-24-en-22-yl (4-hydroxybutyl)carbamate] are 3.75 nM and 4.95 nM.
For `C/C=C(\C)[C@H]1OC(=O)[C@@H](C)NC(=O)[C@H]([C@H](C)CC)NC(=O)CN(C)C(=O)[C@@H](Cc2ccccc2)N(C)C(=O)[C@H](C)NC(=O)[C@@H](CC(C)C)OC(=O)/C(C)=C/C[C@H](OC(=O)NCCCCCO)[C@@H]1C` [Compound 3, (2R,5S,8R,14S,17R,20S,21S,22S,E)-8-benzyl-20-((E)-but-2-en-2-yl)-14-((R)-sec-butyl)-2-isobutyl-5,7,10,17,21,25-hexamethyl-3,6,9,12,15,18,26-heptaoxo-1,19-dioxa-4,7,10,13,16-pentaazacyclohexacos-24-en-22-yl (5-hydroxypentyl)carbamate], in that order: 0.0843 nM and 1.41 nM.
On the same counts, the results for `C/C=C(\C)[C@H]1OC(=O)[C@@H](C)NC(=O)[C@H](C(C)CC)NC(=O)CN(C)C(=O)[C@@H](Cc2ccccc2)N(C)C(=O)[C@H](C)NC(=O)[C@@H](CC(C)C)OC(=O)/C(C)=C/C[C@H](OC(=O)NCCCCCCO)[C@@H]1C` (stereo partly drawn) [Compound 4, (2R,5S,8R,14S,17R,20S,21S,22S,E)-8-benzyl-20-((E)-but-2-en-2-yl)-14-((R)-sec-butyl)-2-isobutyl-5,7,10,17,21,25-hexamethyl-3,6,9,12,15,18,26-heptaoxo-1,19-dioxa-4,7,10,13,16-pentaazacyclohexacos-24-en-22-yl(6-hydroxyhexyl)carbamate] are 0.523 nM and 3.21 nM.
In the case of `C/C=C(\C)[C@H]1OC(=O)[C@@H](C)NC(=O)[C@H](C(C)CC)NC(=O)CN(C)C(=O)[C@@H](Cc2ccccc2)N(C)C(=O)[C@H](C)NC(=O)[C@@H](CC(C)C)OC(=O)/C(C)=C/C[C@H](OC(=O)NCCCCCCCO)[C@@H]1C` (stereo partly drawn) [Compound 5, (2R,5S,8R,14S,17R,20S,21S,22S,E)-8-benzyl-20-((E)-but-2-en-2-yl)-14-((R)-sec-butyl)-2-isobutyl-5,7,10,17,21,25-hexamethyl-3,6,9,12,15,18,26-heptaoxo-1,19-dioxa-4,7,10,13,16-pentaazacyclohexacos-24-en-22-yl(7-hydroxyheptyl)carbamate], the results for the IC50 (in experiment [1]; in the experiment on HCC1954 cells) were 0.329 nM and 1.11 nM, respectively.
In the case of `C/C=C(\C)[C@H]1OC(=O)[C@@H](C)NC(=O)[C@H]([C@H](C)CC)NC(=O)CN(C)C(=O)[C@@H](Cc2ccccc2)N(C)C(=O)[C@H](C)NC(=O)[C@@H](CC(C)C)OC(=O)/C(C)=C/C[C@H](OC(=O)NCCCCCCCCO)[C@@H]1C` [Compound 6, (2R,5S,8R,14S,17R,20S,21S,22S,E)-8-benzyl-20-((E)-but-2-en-2-yl)-14-((R)-sec-butyl)-2-isobutyl-5,7,10,17,21,25-hexamethyl-3,6,9,12,15,18,26-heptaoxo-1,19-dioxa-4,7,10,13,16-pentaazacyclohexacos-24-en-22-yl (8-hydroxyoctyl)carbamate], the IC50 in experiment [1] was 0.93 nM; in the experiment on HCC1954 cells, 1.66 nM.
Consider `C/C=C(\C)[C@H]1OC(=O)[C@@H](C)NC(=O)[C@H]([C@H](C)CC)NC(=O)CN(C)C(=O)[C@@H](Cc2ccccc2)N(C)C(=O)[C@H](C)NC(=O)[C@@H](CC(C)C)OC(=O)/C(C)=C/C[C@H](OC(=O)N(C)CCCCCCNC)[C@@H]1C` [Compound 8, (2R,5S,8R,14S,17R,20S,21S,22S,E)-8-benzyl-20-((E)-but-2-en-2-yl)-14-((R)-sec-butyl)-2-isobutyl-5,7,10,17,21,25-hexamethyl-3,6,9,12,15,18,26-heptaoxo-1,19-dioxa-4,7,10,13,16-pentaazacyclohexacos-24-en-22-yl methyl(6-(methylamino)hexyl)carbamate], for which the IC50 was found to be 8.66 nM in experiment [1] and 31.9 nM in the experiment on HCC1954 cells.
Take `C/C=C(\C)[C@H]1OC(=O)[C@@H](C)NC(=O)[C@H]([C@H](C)CC)NC(=O)CN(C)C(=O)[C@@H](Cc2ccccc2)N(C)C(=O)[C@H](C)NC(=O)[C@@H](CC(C)C)OC(=O)/C(C)=C/C[C@H](OC(=O)N2CCN(CCO)CC2)[C@@H]1C` [Compound 9, (2R,5S,8R,14S,17R,20S,21S,22S,E)-8-benzyl-20-((E)-but-2-en-2-yl)-14-((R)-sec-butyl)-2-isobutyl-5,7,10,17,21,25-hexamethyl-3,6,9,12,15,18,26-heptaoxo-1,19-dioxa-4,7,10,13,16-pentaazacyclohexacos-24-en-22-yl-4-(2-hydroxyethyl)piperazine-1-carboxylate]: the results for the IC50 (in experiment [1]; in the experiment on HCC1954 cells) were 0.15 nM and 0.25 nM, respectively.
Consider `C/C=C(\C)[C@H]1OC(=O)[C@@H](C)NC(=O)[C@H](C(C)CC)NC(=O)CN(C)C(=O)[C@@H](Cc2ccccc2)N(C)C(=O)[C@H](C)NC(=O)[C@@H](CC(C)C)OC(=O)/C(C)=C/C[C@H](OC(=O)NCCOCCO)[C@@H]1C` (stereo partly drawn) [Compound 11, (2R,5S,8R,14S,17R,20S,21S,22S,E)-8-benzyl-20-((E)-but-2-en-2-yl)-14-((R)-see-butyl)-2-isobutyl-5,7,10,17,21,25-hexamethyl-3,6,9,12,15,18,26-heptaoxo-1,19-dioxa-4,7,10,13,16-pentaazacyclohexacos-24-en-22-yl (2-(2-hydroxyethoxy)ethyl)carbamate], for which the IC50 in experiment [1] stood at 1 nM; in the experiment on HCC1954 cells, 1.64 nM.
On to `C/C=C(\C)[C@H]1OC(=O)[C@@H](C)NC(=O)[C@H]([C@H](C)CC)NC(=O)CN(C)C(=O)[C@@H](Cc2ccc(Cl)cc2)N(C)C(=O)[C@H](C)NC(=O)[C@@H](CC(C)C)OC(=O)/C(C)=C/C[C@H](O)[C@@H]1C` [Compound 15, (3R,6S,12R,15S,18R,24S,25S,26S,E)-26-((E)-but-2-en-2-yl)-6-((R)-sec-butyl)-12-(4-chlorobenzyl)-24-hydroxy-18-isobutyl-3,10,13,15,21,25-hexamethyl-1,19-dioxa-4,7,10,13,16-pentaazacyclohexacos-21-ene-2,5,8,11,14,17,20-heptaone], for which the IC50 is 2.62 nM in experiment [1] and 4.37 nM with HCC1954 cells.
Consider `C/C=C(\C)[C@H]1OC(=O)C(C)(C)NC(=O)[C@H]([C@H](C)CC)NC(=O)CN(C)C(=O)[C@@H](Cc2ccc(C#N)cc2)N(C)C(=O)[C@H](C)NC(=O)[C@@H](CC(C)C)OC(=O)/C(C)=C/C[C@H](OC(=O)NCCCCCO)[C@@H]1C` [Compound 29, (2R,5S,8R,14S,20S,21S,22S,E)-20-((E)-but-2-en-2-yl)-14-((R)-sec-butyl)-8-(4-cyanobenzyl)-2-isobutyl-5,7,10,17,17,21,25-heptamethyl-3,6,9,12,15,18,26-heptaoxo-1,19-dioxa-4,7,10,13,16-pentaazacyclohexacos-24-en-22-yl (5-hydroxypentyl)carbamate], for which the IC50 in the experiment with HCC1954 cells was 27.3 nM.

A word on the IC50: it is the concentration that inhibits the measured activity by half. A higher IC50 goes with weaker potency in that assay.
